Laboratory results taken from the supplement of paper PMC11451515.

Key:
[1] = system: NOMO1; assay: AUC of viability dose-response curve (% viability x log10 dose units); higher = less sensitive; details: 48 h
Outline: (§1)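 In 1536-well plates, leukemia cells adapted to each medium (500 or 1000 cells/well) were exposed for 48 h at 37°C to library compounds in DMSO across 11 threefold doses, 47 μM down to 0.79 nM. Viability was read by CellTiter-Glo One luminescence and normalised per plate to DMSO and cell-free wells. A four-parameter log-logistic fit over log10 doses was integrated by trapezoidal rule. This yielded the area under the curve, with over-full-viability curves scaled and quality-control failures dropped.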

[2] = system: P12-Ichikawa; assay: as above; details: 48 h
Outline: as §1

[3] = RPMI 5 mM glucose + 10% dialyzed FBS

Structure (SMILES) | AUC of viability dose-response curve ([1]; HPLM + 10% dialyzed FBS) | AUC of viability dose-response curve ([1]; RPMI 5 mM glucose + 10% FBS) | AUC of viability dose-response curve [1, 3] | AUC of viability dose-response curve ([2]; HPLM + 10% dialyzed FBS) | AUC of viability dose-response curve ([2]; RPMI 5 mM glucose + 10% FBS) | AUC of viability dose-response curve [2, 3]
CCCCc1ccc(N[S+](=O)([O-])c2ccc(C)c(C(=O)N3CCN(c4cccc(C)c4C)CC3)c2)cc1 | 457 | 435 | 473 | 468 | 468 | 464
COc1ccc2c(c1)CC[C@@H](CN(C)CC(=O)O)[C@H]2c1ccccc1 | 409 | 407 | 411 | 368 | 369 | 390
CC(C)C1=N[N](C\2=C1C(=O)N\C(=N2)CC3=CC=C(OCCO)C=C3)C4=C(Cl)C=CC=C4Cl | 225 | 226 | 222 | 244 | 241 | 239
CCCCc1oc2ccccc2c1C(=O)c1cc(I)c(OCCN(CC)CC)c(I)c1 | 442 | 450 | 457 | 451 | 448 | 463
CC(=O)O/N=C1/C(=C2\C(=O)Nc3cc(Br)ccc32)Nc2ccccc21 | 431 | 450 | 443 | 439 | 443 | 437
CC1CCN(c2cc(N3CCN(C)CC3)ccc2NC(=O)c2cc(C#N)c[nH]2)CC1 | 457 | 463 | 454 | 450 | 453 | 453
